# Test results from patent publication US7790762B2, “Compounds and methods for thiol-containing compound efflux and cancer treatment” (National Jewish Health, priority 2002, dated 2010).
# Marks after values point to notes of the source that are not given here.
# Key:
# HL-60 cells [1] = experiment: Intracellular GSH levels by HPLC-EC in HL-60 cells; type: cell-based, human; conditions: for activity at 75 µM / activity at 25 µM: Homo sapiens, read-out: Int. GSH % con.; for activity at 75 µM / Int. GSH % con. / activity at 25 µM: 24 hours treatment; for effect on intracellular GSH (words): HL-60 cells; for activity at 25 µM: HL-60, 25 μM
# Experimental: (§1) Cell lines and culture conditions. Human lung epithelial cancer (A549), human leukemia HL-60 and human prostate (PC-3) tumor cells were purchased from ATCC (Manassas, Va.). A549 and PC-3 cells were grown in Ham's F12 medium (F12) and Kaighn's modification of Ham's F12 medium (F12K) with 2 mM L-glutamine (ATCC), respectively, supplemented with 10% fetal bovine serum (FBS) and 5% pen/strep (10,000 unit, Cellgro). HL-60 cells were grown in Iscove's modified Dulbecco's medium with 4 mM L-glutamine (ATCC) supplemented with 20% FBS and 5% pen/strep. Cell were grown in T-75 flask at 37° C. and 5% CO2 air atmosphere and in 24-well plates for GSH levels and LDH release measurements.
# (§2) Intracellular levels of GSH. Intracellular GSH levels can be determined by HPLC-EC. Cultured cells from 24-well plates were washed once with 1 ml of PBS and then re-suspended in 0.5 ml of distilled water with 40 μM of digitonin (2 mM stock solution in DMSO) for 30 min at room temperature. Then, 50 μl of 10% meta-phosphoric acid were added (1% final concentration), the samples were sonicated for 2 min, centrifuged at 20,000 g for 10 min, and 0.2 ml of supernatant placed in vials for HPLC analysis. […] The flow rate was […]. The retention time for GSH in these conditions was 7.5 min. The HPLC instrument was from ESA, Inc. (Chelmsford, Mass.), equipped with an autosampler (model 540) and a Coul array detector (model 5600A). The potential applied was +0.75 V vs. H/Pd electrode, and the injection volume 5 μl.
# PC-3 cells [2] = experiment: Intracellular GSH levels by HPLC-EC in PC-3 cells; type: cell-based, human
# Experimental: as §1, §2
# PC-3 cells [3] = experiment: Cytotoxicity as LDH release in PC-3 cells; type: cell-based, human; conditions: PC-3, 50 μM, 48 hours treatment; for LDH release, % of control at 50 µM: Homo sapiens, read-out: LDH rel. % con.
# Experimental: as §1
# (§3) Assessment of cytotoxicity. In one exemplary method, membrane integrity of A549, HL-60 and PC-3 cells was used as an index of drug-induced cytotoxicity, and was assessed by monitoring the release of cytosolic lactate dehydrogenase (LDH). LDH activity was measured in the culture medium and cell lysates (50 mM HEPES, Triton X-100 0.5%, pH 7) using a plate reader format as previously described (41). Briefly, 5 μl of cell culture supernatant and lysates were incubated with 0.24 mM NADH in a Tris/NaCl pH 7.2 buffer in 96-well plates for 5 min at 25° C. The reaction was started by the addition of 9.8 mM pyruvate and the consumption of NADH followed at 340 nm for 5 min at 30° C. Percent LDH release was calculated by the following: (supernatant LDH/supernatant LDH+lysate LDH)×100.
# A549 cells [4] = experiment: Cytotoxicity as LDH release in A549 cells; type: cell-based, human; conditions: A549, 75 μM, 48 hours treatment; for LDH release, % of control at 75 µM: Homo sapiens, read-out: LDH rel. % con.
# Experimental: as §1, §3
# HL-60 cells [5] = experiment: Cytotoxicity as LDH release in HL-60 cells; type: cell-based, human; conditions: 48 hours treatment; for LDH release, % of control at 50 µM / LDH rel. % con.: HL-60, 50 μM
# Experimental: as §1, §3
# A549 cells [6] = experiment: Intracellular GSH levels by HPLC-EC in A549 cells; type: cell-based, human
# Experimental: as §1, §2
# epithelial cells = experiment: Effects of compounds on extracellular GSH transport (Table 3); type: cell-based
# [7] = Homo sapiens, read-out: LDH rel. % con.
# [8] = Homo sapiens, A549, 75 μM, 24 hours treatment, read-out: Int. GSH % con.
# [9] = A549, 75 μM, 24 hours treatment
# [10] = Homo sapiens, PC-3, 25 μM, 24 hours treatment, read-out: Int. GSH % con.
# [11] = Epithelial cell, read-out: % Increase Over Control (extracellular GSH)
smiles,measurement,setting,value
O=c1c(O)c(-c2ccc(O)cc2O)oc2cc(O)cc(O)c12 [Morin],activity at 75 µM,"HL-60 cells [1]; HL-60, 75 μM",86%
same,activity at 50 µM,"PC-3 cells [2]; Homo sapiens, PC-3, 50 μM, 24 hours treatment, read-out: Int. GSH % con.",125%
same,effect on intracellular GSH (words),"PC-3 cells [2]; PC-3 cells, 50-75 μM",stimulated an increase in intracellular GSH
same,"LDH release, % of control at 50 µM",PC-3 cells [3],80%
same,"LDH release, % of control at 75 µM",A549 cells [4],112%
same,"LDH release, % of control at 50 µM",HL-60 cells [5]; [7],97%
same,activity at 75 µM,A549 cells [6]; [8],72%
O=c1c(O)c(-c2cc(O)c(O)c(O)c2)oc2cc(O)cc(O)c12 [Myricetin],Int. GSH % con.,"HL-60 cells [1]; HL-60, 75 μM",27 % con.
same,Int. GSH % con.,"PC-3 cells [2]; PC-3, 50 μM, 24 hours treatment",111 % con.
same,LDH rel. % con.,PC-3 cells [3],93 % con.
same,LDH rel. % con.,A549 cells [4],206 % con.
same,LDH rel. % con.,HL-60 cells [5],139 % con.
same,Int. GSH % con.,A549 cells [6]; [9],55 % con.
"O=C1CC(c2ccc(O)cc2)Oc2cc(O)cc(O)c21 (stereo not shown) [Naringenin, 4′,5,7-trihydroxyflavanone]",activity at 75 µM,"HL-60 cells [1]; HL-60, 75 μM",73%
same,activity at 25 µM,PC-3 cells [2]; [10],83%
same,"LDH release, % of control at 50 µM",PC-3 cells [3],107%
same,"LDH release, % of control at 75 µM",A549 cells [4],130%
same,"LDH release, % of control at 50 µM",HL-60 cells [5]; [7],95%
same,activity at 25 µM,"A549 cells [6]; Homo sapiens, A549, 25 μM, 24 hours treatment, read-out: Int. GSH % con.",17%
"CCCOC(=O)c1cc(O)c(O)c(O)c1 [Propyl Gallate, 3,4,5-trihydroxy-benzoic acid propyl ester]",activation at 50 µM,epithelial cells; [11],136%
O=c1c(O)c(-c2ccc(O)c(O)c2)oc2cc(O)cc(O)c12 [Quercetin],Int. GSH % con.,"HL-60 cells [1]; HL-60, 50 μM",94 % con.
same,Int. GSH % con.,"PC-3 cells [2]; PC-3, 25 μM, 24 hours treatment",95 % con.
same,LDH rel. % con.,PC-3 cells [3],80 % con.
same,LDH rel. % con.,A549 cells [4],175 % con.
same,LDH rel. % con.,HL-60 cells [5],157 % con.
same,"Intracellular GSH levels, % compared to control","A549 cells [6]; A549, 25 μM, 4 h",51.0 ± 0.7%
same,Int. GSH % con.,"A549 cells [6]; A549, 25 μM, 24 hours treatment",36 % con.
Oc1ccc(C=Cc2cc(O)cc(O)c2)cc1 [Resveratrol],effect on intracellular GSH (words),HL-60 cells [1],found effective in HL-60 cells
same,activity at 25 µM,HL-60 cells [1],61%
same,activity at 25 µM,PC-3 cells [2]; [10],108%
same,"LDH release, % of control at 50 µM",PC-3 cells [3],135%
same,"LDH release, % of control at 75 µM",A549 cells [4],249%
same,"LDH release, % of control at 50 µM",HL-60 cells [5]; [7],143%
same,activity at 75 µM,A549 cells [6]; [8],64%
"C=C(C)[C@H]1Cc2c(ccc3c2O[C@@H]2COc4cc(OC)c(OC)cc4[C@@H]2C3=O)O1 [Rotenone, reference compound]",effect on intracellular GSH (words),HL-60 cells [1],relatively effective for depleting GSH
same,activity at 25 µM,HL-60 cells [1],< 5%
same,activity at 25 µM,PC-3 cells [2]; [10],74%
same,"LDH release, % of control at 50 µM",PC-3 cells [3],180%
same,"LDH release, % of control at 75 µM",A549 cells [4],170%
same,"LDH release, % of control at 25 µM","HL-60 cells [5]; Homo sapiens, HL-60, 25 μM, read-out: LDH rel. % con.",421%
same,activity at 50 µM,"A549 cells [6]; Homo sapiens, A549, 50 μM, 24 hours treatment, read-out: Int. GSH % con.",53%
C[C@@H]1O[C@@H](OC[C@H]2O[C@@H](Oc3c(-c4ccc(O)c(O)c4)oc4cc(O)cc(O)c4c3=O)[C@H](O)[C@@H](O)[C@@H]2O)[C@H](O)[C@H](O)[C@H]1O [Rutin],Int. GSH % con.,"HL-60 cells [1]; HL-60, 75 μM",98 % con.
same,LDH rel. % con.,PC-3 cells [3],95 % con.
same,LDH rel. % con.,A549 cells [4],187 % con.
same,LDH rel. % con.,HL-60 cells [5],98 % con.
same,Int. GSH % con.,A549 cells [6]; [9],86 % con.
same,% Increase Over Control (extracellular GSH),epithelial cells; 100 μM,160 ^b %
"O=C(O)c1cc(/N=N/c2ccc(S(=O)(=O)Nc3ccccn3)cc2)ccc1O [Sulfasalazine, reference compound]",activation at 50 µM,epithelial cells; [11],211%
"Nc1ccc(C(=O)O)c(O)c1 [p-Aminosalicylic Acid, 4-amino-2-hydroxybenzoic acid, reference compound]",activation at 100 µM,"epithelial cells; Epithelial cell, 100 μM, read-out: % Increase Over Control (extracellular GSH)",414%
